In patent publication US20220259212A1, “INHIBITORS OF INDOLEAMINE 2,3-DIOXYGENASE AND/OR TRYPTOPHAN 2,3-DIOXYGENASE” (Idorsia Pharmaceuticals Ltd, priority 2019, published 2022):

Assays:
[1] = target: T1, IDO1 in SKOV3 cells (Homo sapiens, UniProt P14902); experiment: Cell-based IDO inhibitory activity in IFNγ-stimulated SKOV3 cells (NFK + kynurenine by LCMS); settings: IFNγ 50 ng/ml, 200 uM L-tryptophan, 24 hours
T1 construct: SKOV3 cells (NCI, No. 0503405) which upregulate IDO1 after stimulation with IFNγ; host or cells: SKOV3 cells stimulated with IFNγ
T1 sequence (P14902 whole entry): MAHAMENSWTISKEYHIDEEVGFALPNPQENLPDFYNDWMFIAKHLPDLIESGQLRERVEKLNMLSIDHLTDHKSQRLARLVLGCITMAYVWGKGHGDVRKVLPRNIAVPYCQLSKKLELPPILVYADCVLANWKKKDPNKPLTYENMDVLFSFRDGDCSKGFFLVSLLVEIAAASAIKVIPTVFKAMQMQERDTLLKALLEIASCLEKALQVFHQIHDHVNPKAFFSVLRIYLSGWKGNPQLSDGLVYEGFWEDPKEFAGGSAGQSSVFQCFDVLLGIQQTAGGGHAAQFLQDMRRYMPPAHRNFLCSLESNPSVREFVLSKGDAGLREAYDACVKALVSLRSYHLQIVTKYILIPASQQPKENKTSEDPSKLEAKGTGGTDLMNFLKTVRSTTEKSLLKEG
Description: 3) Testing Compounds for IDO/TDO Inhibitory Activity and Toxicity in Cell-Based Assays
SW48 cells (ATCC, CCL-231) are used to measure compounds for TDO inhibitory activity and are routinely maintained in DMEM high glucose/GlutaMAX™/pyruvate 90% (v/v), FCS 10% (v/v), Penicilin/streptomycin 1% (v/v). SKOV3 cells (NCI, No. 0503405) which upregulate IDO1 after stimulation with IFNγ are used to measure compounds for IDO inhibitory activity. SKOV3 cells are routinely maintained in RPMI 90% (v/v), FCS 10% (v/v), Penicilin/streptomycin 1% (v/v). SW48 or SKOV3 cells are seeded in 384 well plates at a density of 8000 cells in 45 ul per well or 4000 cells in 45 ul per well, respectively. Plates are incubated at 37° C./5% CO2 for 24 hours. On the next day, 10 ul compound in serial dilutions (tested concentration range 10 uM-40 nM) and 200 uM L-tryptophan are added (SKV03 receive in addition IFNγ at a final concentration of 50 ng/ml). After 24 hours of incubation at 37° C./5% CO2, 3 ul of the supernatant per well is transferred to 25 ul H2O per well in a 384 deep well plate and 25 ul of the supernatant per well is transferred to waste. The SKOV3 and SW48 cell plates with 25 ul supernatant per well remaining are used to measure viability (see below). The 384 deep well plate containing 3 ul supernatant and 25 ul H2O per well are further processed for LCMS: After the addition of 100 ul L-tryptophan-(indole-d5) (Sigma 615862) at 200 nM in methanol, the 384 deep well plates are centrifuged for 10 minutes at 3220×g at 4° C., 75 ul H2O is added per well and plates centrifuged again for 10 minutes at 3220×g at 4° C. N-formylkynurenine and kynurenine are quantified by LCMS, normalized to the internal standard L-tryptophan-(indole-d5) and the sum is calculated. Samples with 0.2% DMSO (0% effect) and a TDO/IDO inhibitor (100% effect) are used as control samples to set the parameters for the non-linear regression necessary for the determination of the IC50 for each compound. For each compound concentration the percentage of activity compared to 0% and 100% effect is calculated as average±STDEV (each concentration measured in duplicate). IC50 values and curves are generated with XLfit software (IDBS) using Dose-Response One Site model 203. The calculated IC50 values may fluctuate depending on the daily cellular assay performance. Fluctuations of this kind are known to those skilled in the art. When compounds are measured multiple times, mean values are given.

[2] = target: T2, Recombinant full-length human IDO1 (Homo sapiens, UniProt P14902); experiment: IDO1 enzymatic assay (NFK quantified by LCMS); format: biochemical; settings: 2 nM enzyme, 5 μM L-tryptophan, 30 min pre-incubation, pH6.5; mean if measured multiple times; read-out: hIDO activity (IC50 in nM)
T2 construct: Recombinant full-length human IDO1 with a N-terminal hexahistidine tag; hexahistidine (N); made in house; host or cells: E. coli
T2 sequence (P14902 whole entry): as above
Protocol: 1) Testing Compounds for IDO Inhibitory Activity in an IDO1 Enzymatic Assay:
Recombinant full-length human IDO1 with a N-terminal hexahistidine tag expressed in E. coli and purified to homogeneity is incubated at a final concentration of 2 nM in assay buffer consisting of 37.5 mM phosphate buffer at pH6.5 supplemented with 10 mM ascorbic acid, 0.45 μM methylene blue, 50 U/ml catalase, 0.01% BSA, and 0.01% Tween 20 (protocol modified from Seegers et al, JBS 2014). Example compounds are serially diluted in DMSO, further diluted in phosphate buffer, and added to the enzyme at final concentrations ranging from 10 μM to 0.5 nM. The final DMSO concentration is 0.6%. Following a pre-incubation of 30 minutes at RT, the reaction is started by the addition of L-tryptophan at a final concentration of 5 μM in assay buffer. After 30 minutes of incubation at RT, 3 μL of the 20 μl reaction mixture are transferred to a 384 deep well plate containing 25 μL of deionized water. 100 μl of 200 nM L-Tryptophan-(indole-d5) in cold 100% methanol are added followed by a 10 minutes centrifugation at 3220×g at 4° C. An additional 75 μL of deionized water are then added followed by a 10 minutes centrifugation at 3220×g at 4° C. The product of the reaction N′-Formylkynurenine (NFK) is quantified by LCMS and normalized to the L-Tryptophan-(indole-d5) signal. Samples with 0.6% DMSO (0% effect) and a TDO/IDO inhibitor (100% effect) are used as control samples to set the parameters for the non-linear regression necessary for the determination of the half-maximal inhibitory concentration (IC50) for each compound. For each compound concentration the percentage of activity compared to 0% and 100% effect is calculated as average±STDEV (each concentration measured in duplicate). IC50 values and curves are generated with XLfit software (IDBS) using Dose-Response One Site model 203 (four parameter logistic curve model). The calculated IC50 values may fluctuate depending on the daily assay performance. Fluctuations of this kind are known to those skilled in the art. When compounds are measured multiple times, mean values are given.

[3] = target: T3, Recombinant human TDO comprising amino acids 19-407 (Homo sapiens, UniProt P48775); experiment: TDO2 enzymatic assay (NFK quantified by LCMS); format: biochemical; settings: 15 nM enzyme, 200 μM L-tryptophan, 30 min pre-incubation, pH7; mean if measured multiple times; read-out: hTDO activity (IC50 in nM)
T3 construct: human TDO comprising amino acids 19-407; hexahistidine (N); made in house; host or cells: E. coli
T3 sequence (P48775 19-406 limits assumed): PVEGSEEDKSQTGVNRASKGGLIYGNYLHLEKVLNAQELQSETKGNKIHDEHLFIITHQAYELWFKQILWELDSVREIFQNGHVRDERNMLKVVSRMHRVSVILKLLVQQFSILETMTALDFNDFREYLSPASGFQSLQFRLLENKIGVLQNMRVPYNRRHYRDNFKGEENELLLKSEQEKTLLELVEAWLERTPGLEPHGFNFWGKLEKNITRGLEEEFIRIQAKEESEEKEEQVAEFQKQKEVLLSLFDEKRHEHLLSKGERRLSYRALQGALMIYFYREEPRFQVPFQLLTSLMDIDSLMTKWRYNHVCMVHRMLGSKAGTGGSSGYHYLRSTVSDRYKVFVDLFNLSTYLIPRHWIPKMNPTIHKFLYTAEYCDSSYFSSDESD
Protocol: 2) Testing Compounds for TDO Inhibitory Activity in a TDO2 Enzymatic Assay:
Recombinant human TDO comprising amino acids 19-407 with a N-terminal hexahistidine tag expressed in E. coli and purified to homogeneity is incubated at a final concentration of 15 nM in assay buffer consisting of 75 mM phosphate buffer at pH7 supplemented with 100 μM ascorbic acid, 50 U/ml Catalase, 0.01% BSA, and 0.01% Tween 20 (protocol modified from Seegers et al, JBS 2014). Example compounds are serially diluted in DMSO, further diluted in phosphate buffer, and added to the reaction mixture at final concentrations ranging from 10 μM to 0.5 nM. The final DMSO concentration is 0.6%. Following a pre-incubation of 30 minutes at RT, the reaction is started by the addition of L-tryptophan at a final concentration of 200 μM in assay buffer. After 30 minutes of incubation at RT, 3 μL of the reaction mixture are transferred to a 384 deep well plate containing 25 μL of deionized water. 100 μl of 200 nM L-Tryptophan-(indole-d5) in cold 100% methanol are added followed by a 10 minutes centrifugation at 3220×g at 4° C. An additional 75 μL of deionized water are then added followed by a 10 minutes centrifugation at 3220×g at 4° C. The product of the reaction N′-Formylkynurenine (NFK) is quantified by LCMS and normalized to the L-Tryptophan-(indole-d5) signal. Samples with 0.6% DMSO (0% effect) and a TDO/IDO inhibitor (100% effect) are used as control samples to set the parameters for the non-linear regression necessary for the determination of the half-maximal inhibitory concentration (IC50) for each compound. For each compound concentration the percentage of activity compared to 0% and 100% effect is calculated as average±STDEV (each concentration measured in duplicate). IC50 values and curves are generated with XLfit software (IDBS) using Dose-Response One Site model 203 (four parameter logistic curve model). The calculated IC50 values may fluctuate depending on the daily assay performance. Fluctuations of this kind are known to those skilled in the art. When compounds are measured multiple times, mean values are given.

| Compound | IC50 [1] [nM] | IC50 [2] [nM] | IC50 [3] [nM] |
| --- | --- | --- | --- |
| OC(c1cn(-c2ccccc2)nn1)c1c(C2CC2)ncc2cncn12 (racemic) [Example 3, rac-(6-Cyclopropyl-imidazo[1,5-a]pyrazin-5-yl)-(1-phenyl-1H-[1,2,3]triazol-4-yl)-methanol] | 470 | 41 | > 10200 |
| COc1ccc(-n2cc(C(O)c3c(C4CC4)ccc4cncn34)nn2)cc1 (racemic) [Example 4, rac-(6-Cyclopropyl-imidazo[1,5-a]pyridin-5-yl)-[1-(4-methoxy-phenyl)-1H-[1,2,3]triazol-4-yl]-methanol] | 42.2 | 3.7 | > 10200 |
| Cc1c(C(O)c2c(Cl)ccc3cncn23)nnn1-c1ccc(OCCC(C)(C)O)c(Cl)c1 (racemic) [Example 49, rac-4-(2-Chloro-4-{4-[(6-chloro-imidazo[1,5-a]pyridin-5-yl)-hydroxy-methyl]-5-methyl-[1,2,3]triazol-1-yl}-phenoxy)-2-methyl-butan-2-ol] | 10.2 |  | 8360 |
| Cc1c(C(O)c2c(Cl)ccc3cncn23)nnn1-c1ccc(OCCC(C)(C)O)c(F)c1 (racemic) [Example 50, rac-4-(4-{4-[(6-Chloro-imidazo[1,5-a]pyridin-5-yl)-hydroxy-methyl]-5-methyl-[1,2,3]triazol-1-yl}-2-fluoro-phenoxy)-2-methyl-butan-2-ol] | 5.41 |  | 8200 |
| COc1ccc(-n2nnc(C(O)c3c(Cl)ccc4cncn34)c2Cl)cc1 (racemic) [Example 51, rac-(6-Chloro-imidazo[1,5-a]pyridin-5-yl)-[5-chloro-1-(4-methoxy-phenyl)-1H-[1,2,3]triazol-4-yl]-methanol] | 145 |  | 7040 |
| Cc1c(C(O)c2c(C3CC3)ncc3cncn23)nnn1-c1ccccc1F (racemic) [Example 57, rac-(6-Cyclopropyl-imidazo[1,5-a]pyrazin-5-yl)-(1-(2-fluoro-phenyl)-5-methyl-1H-[1,2,3]triazol-4-yl-methanol] | 333 |  | > 10200 |

The remaining compounds from weak to strong by IC50 [1], led by results:

| IC50 [1] [nM] | IC50 [2] [nM] | IC50 [3] [nM] | Compound |
| --- | --- | --- | --- |
| 364 |  | > 10200 | Cc1c(C(O)c2c(C3CC3)ncc3cncn23)nnn1-c1ccc(F)cc1F (racemic) [Example 54, rac-(6-Cyclopropyl-imidazo[1,5-a]pyrazin-5-yl)-[1-(2,4-difluoro-phenyl)-5-methyl-1H-[1,2,3]triazol-4-yl]-methanol] |
| 246 | 9.6 | > 10200 | OC(c1cn(-c2ccccc2)nn1)c1c(Cl)ccc2cncn12 (racemic) [Example 1, rac-(6-Chloro-imidazo[1,5-a]pyridin-5-yl)-(1-phenyl-1H-[1,2,3]triazol-4-yl)-methanol] |
| 225 | 6.17 | > 10200 | Cc1ccc2cncn2c1C(O)c1cn(-c2ccccc2)nn1 (racemic) [Example 2, rac-(6-Methyl-imidazo[1,5-a]pyridin-5-yl)-(1-phenyl-1H-[1,2,3]triazol-4-yl)-methanol] |
| 51.9 | 9.61 |  | COc1ccc(-n2cc([C@H](O)c3c(C4CC4)ncc4cncn34)nn2)cc1Br [Example 23, (R)-[1-(3-Bromo-4-methoxy-phenyl)-1H-[1,2,3]triazol-4-yl]-(6-cyclopropyl-imidazo[1,5-a]pyrazin-5-yl)-methanol] |
| 35 |  | > 10200 | COc1cc(F)c(-n2nnc(C(O)c3c(C4CC4)ncc4cncn34)c2C)cc1F (racemic) [Example 55, rac-(6-Cyclopropyl-imidazo[1,5-a]pyrazin-5-yl)-[1-(2,5-difluoro-4-methoxy-phenyl)-5-methyl-1H-[1,2,3]triazol-4-yl]-methanol] |
| 29.3 |  | > 10200 | CC(C)(O)COc1cc(F)c(-n2cc([C@H](O)c3c(C4CC4)ncc4cncn34)nn2)cc1F [Example 56, 1-(4-{4-[(R)-(6-Cyclopropyl-imidazo[1,5-a]pyrazin-5-yl)-hydroxy-methyl]-[1,2,3]triazol-1-yl}-2,5-difluoro-phenoxy)-2-methyl-propan-2-ol] |
| 27.4 |  | > 10200 | O[C@@H](c1cn(-c2cc(F)c(OCC3COC3)cc2F)nn1)c1c(C2CC2)ncc2cncn12 [Example 53, (R)-(6-Cyclopropyl-imidazo[1,5-a]pyrazin-5-yl)-{1-[2,5-difluoro-4-(oxetan-3-ylmethoxy)-phenyl]-1H-[1,2,3]triazol-4-yl}-methanol] |
| 18.1 |  | > 10200 | O[C@@H](c1cn(-c2cc(F)c(OCC3(F)COC3)cc2F)nn1)c1c(C2CC2)ncc2cncn12 [Example 52, (R)-(6-Cyclopropyl-imidazo[1,5-a]pyrazin-5-yl)-{1-[2,5-difluoro-4-(3-fluoro-oxetan-3-ylmethoxy)-phenyl]-1H-[1,2,3]triazol-4-yl}-methanol] |
